Source: patent US9006450B2 (Boehringer Ingelheim International GmbH, priority 2010, dated 2015)

Molecular target: T1, human ACC2 (Homo sapiens, UniProt O00763)
T1 construct: made in house; host or cells: insect cells (baculoviral expression system)
Experiment: ACC2 assay, spectrophotometric 384 well assay (NADH-linked, coupled lactate dehydrogenase/pyruvate kinase)
Assay type: biochemical
Details: ACC2 assay, hACC2 construct lacking 128 N-terminal amino acids, 25° C., 340 nm; read-out: IC50
Protocol: Spectrophotometric 384 Well Assay
Malonyl CoA formation by acetyl CoA carboxylases is stoichometrically linked to the consumption of ATP. ACC2 activity is measured in a NADH-linked kinetic method measuring ADP generated during the ACC reaction using a coupled lactate dehydrogenase/pyruvate kinase reaction.
For biological testing, a human ACC2 construct which lacks the 128 amino acids at the N-terminus for increased solubility (nt 385-6966 in Genbank entry AJ575592) is cloned. The protein is then expressed in insect cells using a baculoviral expression system. Protein purification is performed by anion exchange.
All compounds are dissolved in dimethyl sulfoxide (DMSO) to a concentration of 10 mM.
Assay reactions are then carried out in 384-well plates, with hACC2 in an appropriate dilution and at final assay concentrations (f.c.) of 100 mM Tris (pH 7.5), 10 mM trisodium citrate, 25 mM KHCO3, 10 mM MgCl2, 0.5 mg/mL BSA, 3.75 mM reduced L-glutathione, 15 U/mL lactate dehydrogenase, 0.5 mM phosphoenolpyruvate, 15 U/mL pyruvate kinase, compounds at different concentrations at final DMSO concentrations of 1%.
The enzymatic reaction is then started by addition of a mixture of NADH, acetyl Coenzyme A (both 200 μM f.c.) and ATP (500 uM f.c.). The decrease of the optical density (slope S) is then determined at 25° C. at a wavelength of 340 nm over 15 minutes in a spectrophotometric reader.
Each assay microtiter plate contains wells with vehicle instead of compound as controls for the non-inhibited enzyme (100% CTL; ‘HIGH’) and wells without acetyl-CoA as controls for non-specific NADH degradation (0% CTL; ‘LOW’).
The slope S is used for calculation of % CTL=(S(compound)−S('LOW'))/(S('HIGH')−S('LOW'))*100. Compounds will give values between 100% CTL (no inhibition) and 0% CTL (complete inhibition).
For IC50 value determination, the sample slope in the presence of the test compound after subtraction of the low controls (S(compound)−S('LOW')) are used.
An IC50 value is derived from the compound slopes at different dosages after subtraction of the low controls (S(compound)−S('LOW')) by non-linear regression curve fitting (equation y=(A+((B−A)/(1+((C/x)^D))))).

T1 sequence (O00763 129-2458 limits assumed): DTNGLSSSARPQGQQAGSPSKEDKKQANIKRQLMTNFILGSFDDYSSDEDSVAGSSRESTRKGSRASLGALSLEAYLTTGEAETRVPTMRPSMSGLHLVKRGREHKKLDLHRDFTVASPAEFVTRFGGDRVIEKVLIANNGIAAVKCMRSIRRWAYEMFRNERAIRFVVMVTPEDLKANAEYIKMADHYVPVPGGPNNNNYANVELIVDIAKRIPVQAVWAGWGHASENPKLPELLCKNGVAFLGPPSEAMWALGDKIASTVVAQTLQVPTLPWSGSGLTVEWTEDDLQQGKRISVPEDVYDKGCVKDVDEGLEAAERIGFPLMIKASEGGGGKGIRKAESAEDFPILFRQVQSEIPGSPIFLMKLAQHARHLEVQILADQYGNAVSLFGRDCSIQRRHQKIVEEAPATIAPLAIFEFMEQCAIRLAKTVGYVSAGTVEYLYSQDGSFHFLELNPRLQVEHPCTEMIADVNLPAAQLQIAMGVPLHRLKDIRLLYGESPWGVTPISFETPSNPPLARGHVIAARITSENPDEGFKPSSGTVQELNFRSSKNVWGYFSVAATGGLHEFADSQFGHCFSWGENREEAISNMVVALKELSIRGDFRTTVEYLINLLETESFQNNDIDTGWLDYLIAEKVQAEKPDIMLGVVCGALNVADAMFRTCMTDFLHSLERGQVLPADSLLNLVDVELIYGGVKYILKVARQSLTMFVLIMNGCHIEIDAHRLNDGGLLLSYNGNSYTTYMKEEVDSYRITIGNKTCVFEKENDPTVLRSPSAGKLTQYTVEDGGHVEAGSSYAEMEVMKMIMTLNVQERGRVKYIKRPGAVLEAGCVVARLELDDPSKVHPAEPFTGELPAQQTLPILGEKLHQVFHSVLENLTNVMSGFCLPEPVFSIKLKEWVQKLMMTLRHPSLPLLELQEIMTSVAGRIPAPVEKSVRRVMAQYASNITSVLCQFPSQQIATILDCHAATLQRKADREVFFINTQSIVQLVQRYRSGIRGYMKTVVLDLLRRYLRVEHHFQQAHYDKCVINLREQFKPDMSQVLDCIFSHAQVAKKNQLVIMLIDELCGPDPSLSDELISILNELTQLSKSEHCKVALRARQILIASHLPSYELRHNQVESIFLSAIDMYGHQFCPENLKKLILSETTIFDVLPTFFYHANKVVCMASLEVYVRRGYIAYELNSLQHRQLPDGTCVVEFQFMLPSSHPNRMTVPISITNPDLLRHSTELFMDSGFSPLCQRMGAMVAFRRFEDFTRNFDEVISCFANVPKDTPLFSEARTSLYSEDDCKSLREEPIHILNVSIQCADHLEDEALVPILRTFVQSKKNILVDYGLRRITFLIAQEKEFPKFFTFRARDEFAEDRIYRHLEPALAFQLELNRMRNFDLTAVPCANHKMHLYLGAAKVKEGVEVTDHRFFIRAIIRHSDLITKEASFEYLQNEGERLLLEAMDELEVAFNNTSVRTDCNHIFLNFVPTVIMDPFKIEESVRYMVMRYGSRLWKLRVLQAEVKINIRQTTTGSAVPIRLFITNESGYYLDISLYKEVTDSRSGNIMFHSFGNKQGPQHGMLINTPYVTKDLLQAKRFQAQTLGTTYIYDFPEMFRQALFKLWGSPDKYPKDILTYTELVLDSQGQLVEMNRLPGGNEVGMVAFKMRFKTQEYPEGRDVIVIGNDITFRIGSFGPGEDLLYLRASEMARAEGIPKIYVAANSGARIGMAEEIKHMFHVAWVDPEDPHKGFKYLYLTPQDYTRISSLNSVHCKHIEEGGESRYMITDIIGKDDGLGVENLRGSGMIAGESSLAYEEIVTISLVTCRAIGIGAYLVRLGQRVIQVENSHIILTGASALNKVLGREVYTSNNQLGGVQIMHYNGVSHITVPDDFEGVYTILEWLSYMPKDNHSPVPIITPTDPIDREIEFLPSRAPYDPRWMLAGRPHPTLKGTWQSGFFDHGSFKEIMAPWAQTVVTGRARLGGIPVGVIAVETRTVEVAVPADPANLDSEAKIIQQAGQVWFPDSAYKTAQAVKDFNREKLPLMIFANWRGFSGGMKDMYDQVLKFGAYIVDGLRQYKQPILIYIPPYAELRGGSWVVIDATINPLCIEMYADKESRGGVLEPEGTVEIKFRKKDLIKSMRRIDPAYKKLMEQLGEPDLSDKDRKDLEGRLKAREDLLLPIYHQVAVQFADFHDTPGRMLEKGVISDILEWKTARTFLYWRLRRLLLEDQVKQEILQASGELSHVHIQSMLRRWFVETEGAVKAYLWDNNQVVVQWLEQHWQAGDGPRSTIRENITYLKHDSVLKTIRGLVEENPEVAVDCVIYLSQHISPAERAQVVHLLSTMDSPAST

IC50 [nM] | SMILES
420 | CC(=O)N[C@@H](C)c1ccc(C2CCN(c3ncc(-c4cc(C)ccc4C)cn3)CC2)cc1 [Example 10.54]
550 | CC(=O)N[C@@H](C)c1ccc(C2CCN(c3ccnc(N4CCC5(CC5)C4)n3)CC2)cc1 [Example 11.93]
710 | CC(=O)N[C@@H](C)c1ccc(C2CCN(c3cc(OCC4(C#N)CC4)ncn3)CC2)cc1 [Example 11.35]
160 | CC(=O)N[C@@H](C)c1ccc(C2CCN(c3ncc(OCC4CC4(F)F)cn3)CC2)cc1 (stereo partly shown) [Example 4.53]
530 | CCOc1ccc(N2CCC(c3ccc([C@H](C)NC(C)=O)cc3)CC2)c(OCC)n1 [Example 1.180]
440 | CC(=O)N[C@@H](C)c1ccc(C2CCN(c3ccc(C(F)(F)F)cn3)CC2)cc1 [Example 4.17]
300 | CCOc1ccc(N2CCC(c3ccc([C@H](C)NC(=O)CC)cc3)CC2)c(C#N)c1 [Example 1.154]
11500 | CC(=O)N[C@@H](C)c1ccc(C2CCN(c3ncc(C(=O)N(C)CC4OCCO4)cn3)CC2)cc1 [Example 18.10]
100 | CC(=O)N[C@@H](C)c1ccc(C2CCN(c3ncc(-c4ccc(C)cc4)cn3)CC2)cc1 [Example 10.44]
760 | COc1ncccc1-c1cnc(N2CCC(c3ccc([C@H](C)NC(C)=O)cc3)CC2)nc1 [Example 10.58]
660 | CCC(NC(C)=O)c1ccc(C2CCN(c3ccc(OCC4CC4(F)F)cc3)CC2)cc1 (stereo not shown) [Example 1.205]
320 | CC(=O)N[C@@H](C)c1ccc(C2CCN(c3ccc(-c4ccc5[nH]ccc5c4)cn3)CC2)cc1 [Example 10.301]
220 | CC(=O)N[C@@H](C)c1ccc(C2CCN(c3ccnc(OCCC(C)C)c3)CC2)cc1 [Example 19.21]
1600 | COc1cc(C)c(-c2cnc(N3CCC(c4ccc([C@H](C)NC(C)=O)cc4)CC3)nc2)cc1C [Example 10.127]
16900 | CC(=O)N[C@@H](C)c1ccc(C2CCN(c3ncc(C(=O)N4Cc5cnn(C)c5C4)cn3)CC2)cc1 [Example 18.28]
2500 | CC(=O)N[C@@H](C)c1ccc(C2CCN(c3cc(N4CCC4)ncn3)CC2)cc1 [Example 11.99]
260 | CC(=O)N[C@@H](C)c1ccc(C2CCN(c3ccnc(N4CCCCC4)n3)CC2)cc1 [Example 11.58]
70 | C=CCCOc1ccc(N2CCC(c3ccc([C@H](C)NC(C)=O)cc3)CC2)cc1 [Example 9.27]
230 | CC(=O)N[C@@H](C)c1ccc(C2CCN(c3ccnc(N(C)CC4CC4)n3)CC2)cc1 [Example 11.90]
100 | CCCOc1ccc(N2CCC(c3ccc([C@H](C)NC(=O)OC)cc3)CC2)cc1 [Example 1.13]
7100 | CCCNc1cc(N2CCC(c3ccc([C@H](C)NC(C)=O)cc3)CC2)ncn1 [Example 11.42]

IC50 [nM] | SMILES
350 | CC(=O)N[C@@H](C)c1ccc(C2CCN(c3ccnc(Oc4cccc(F)c4)n3)CC2)cc1 [Example 11.28]
220 | CC(=O)N[C@@H](C)c1ccc(C2CCN(c3ccc(OCC4CC4)c(F)c3)CC2)cc1 [Example 9.41]
90 | CC(=O)N[C@@H](C)c1ccc(C2CCN(c3ncc(-c4ccccc4)c(Cl)n3)CC2)cc1 [Example 5.50, (S)—N-(1-{4-[1-(4-chloro-5-phenyl-pyrimidin-2-yl)-piperidin-4-yl]-phenyl}-ethyl)-acetamide]
840 | CCCOc1ccc(N2CCC(c3ccc([C@H](C)NC(=O)OC)cc3)CC2)c(OC)c1 [Example 1.132]
200 | CCCOc1ccc(N2CCC(c3ccc([C@H](C)NC(C)=O)cc3)CC2)cc1F [Example 8.62]
260 | CC(=O)N[C@@H](C)c1ccc(C2CCN(c3ncc(C(=O)Nc4ccccc4F)cn3)CC2)cc1 [Example 18.6]
1900 | CCC(NC(C)=O)c1ccc(C2CCN(c3ccc(OCC4CC4)cc3F)CC2)cc1 (stereo not shown) [Example 1.202]
90 | CCCOc1ccc(N2CCC(c3ccc([C@H](C)NC(C)=O)cc3)CC2)c(C#N)n1 [Example 1.181]
23900 | CC(=O)N[C@@H](C)c1ccc(C2CCN(c3ccc4oc(=O)[nH]c4c3)CC2)cc1 [Example 1.68]
200 | CC(=O)N[C@@H](C)c1ccc(C2CCN(c3ccnc(OCc4ccccc4)c3)CC2)cc1 [Example 15.3]
110 | CC(=O)N[C@@H](C)c1ccc(C2CCN(c3ccnc(OC(C)C)c3)CC2)cc1 [Example 3.3]
430 | CCOc1ccc(N2CCC(c3ccc([C@H](C)NC(C)=S)cc3)CC2)cc1 [Example 38.1, (S)-N-(1-(4-(1-(4-Ethoxyphenyl)piperidin-4-yl)phenyl)ethyl)ethanethioamide]
160 | CC(=O)N[C@@H](C)c1ccc(C2CCN(c3cccc(OC(C)C)c3)CC2)cc1 [Example 8.7]
2700 | CC(=O)N[C@@H](C)c1ccc(C2CCN(c3ncc(-c4c(C)noc4C)cn3)CC2)cc1 [Example 10.20]
2700 | CCOc1ccc(N2CCC(c3ccc([C@H](C)NC(=O)CC(C)=O)cc3)CC2)cc1 [Example 30.1]
2700 | CC(=O)N[C@@H](C)c1ccc(C2CCN(c3ccc(F)c(C#N)c3)CC2)cc1 [Example 1.159]
410 | CC(=O)N[C@@H](C)c1ccc(C2CCN(c3ncc(-c4ccc5c(c4)OCCCO5)cn3)CC2)cc1 [Example 10.26]
240 | CCOc1cccc(-c2ccnc(N3CCC(c4ccc([C@H](C)NC(C)=O)cc4)CC3)n2)c1 [Example 22.10]
470 | CCOc1ccc(N2CCC(c3ccc([C@H](C)NC(=O)NC)cc3)CC2)cc1 [Example 14.1, (S)-1-(1-{4-[1-(4-Ethoxy-phenyl)-piperidin-4-yl]-phenyl}-ethyl)-3-methyl-urea]
23700 | CC(=O)N[C@@H](C)c1ccc(C2CCN(c3ccc4c(c3)ncn4C)CC2)cc1 [Example 1.72]
14500 | CC(=O)N[C@@H](C)c1ccc(C2CCN(c3cc(O)ncn3)CC2)cc1 [Example 11.116]

IC50 [nM] | SMILES
2300 | CC(=O)N[C@@H](C)c1ccc(C2CCN(c3ccnc(NCc4ccccc4)n3)CC2)cc1 [Example 11.56]
3500 | CCOc1ccc(N2CCC(c3ccc([C@H](C)NC(=O)N(C)C)cc3)CC2)c(OCC)c1 [Example 1.129]
150 | CCOc1ccc(N2CCC(c3ccc([C@H](C)NC(=O)C4(C)CC4)cc3)CC2)cc1 [Example 6.9]
840 | CCCC(C)Oc1ccc(N2CCC(c3ccc([C@H](C)NC(C)=O)cc3)CC2)cc1OC (stereo partly shown) [Example 8.59]
240 | COc1ccc(-c2cnc(N3CCC(c4ccc([C@H](C)NC(C)=O)cc4)CC3)nc2)cc1Cl [Example 10.57]
6500 | CNc1nccc(N2CCC(c3ccc([C@H](C)NC(C)=O)cc3)CC2)n1 [Example 11.84]
140 | CCC(C)Oc1ccc(N2CCC(c3ccc([C@H](C)NC(=O)N(C)C)cc3)CC2)cc1 (stereo partly shown) [Example 1.7]
4000 | COC1CN(c2cc(N3CCC(c4ccc([C@H](C)NC(C)=O)cc4)CC3)ncn2)C1 [Example 11.79]
1200 | COC(=O)c1cnc(N2CCC(c3ccc([C@H](C)NC(C)=O)cc3)CC2)nc1 [Example 4.36]
2500 | CC(=O)N[C@@H](C)c1ccc(C2CCN(c3ncccc3C#N)CC2)cc1 [Example 4.1, (S)—N-(1-{4-[1-(3-Cyanopyridin-2-yl)piperidin-4-yl]phenyl}ethyl)acetamide]
11600 | CC(=O)N[C@@H](C)c1ccc(C2CCN(c3nc4ccccc4n3C)CC2)cc1 [Example 4.12]
4200 | CCCCOc1ccc(N2CCC(c3ccc([C@H](C)NC(C)=O)cc3)CC2)cc1C#N [Example 8.41]
200 | CC(=O)N[C@@H](C)c1ccc(C2CCN(c3ncc(-c4ccc(O)c(Cl)c4)cn3)CC2)cc1 [Example 10.78]
18500 | CC(=O)N[C@@H](C)c1ccc(C2CCN(c3cc(-n4ccc(=N)cc4)ncn3)CC2)cc1 [Example 11.52]
940 | CC(=O)N[C@@H](C)c1ccc(C2CCN(c3ccnc(-c4ccc(C#N)s4)n3)CC2)cc1 [Example 22.5]
470 | CC(=O)N[C@@H](C)c1ccc(C2CCN(c3ncc(C(C)(C)C)s3)CC2)cc1 [Example 4.102]
120 | CC(=O)N[C@@H](C)c1ccc(C2CCN(c3ncc(-c4ccc5c(c4)OCO5)cc3F)CC2)cc1 [Example 10.313]
1100 | CCOc1ccc(N2CCC(c3ccc([C@H](C)NC(=O)CCOC)cc3)CC2)cc1 [Example 6.30]
410 | CC(=O)N[C@@H](C)c1ccc(C2CCN(c3ncc(I)cn3)CC2)cc1 [Example 4.43, (S)—N-(1-{4-[1-(5-iodopyrimidin-2-yl)-piperidin-4-yl]-phenyl}-ethyl)-acetamide]
